The source of these data is ChEMBL document CHEMBL1151583, “Conformationally-restricted analogs of TXA2 antagonist SQ 33,961: Receptor binding conformation of the carboxyl sidechain” (Bioorg Med Chem Lett, 1991).

For the assay, the species on record is Homo sapiens. The experiment in a line: In vitro ability to inhibit arachidonic acid induced platelet aggregation (AAIPA). The note with it: read-out: I50. The format is functional.

SMILES strings stand for the structures.

Turning to `O=C(O)CCc1ccccc1/C=C1\C2CCC(O2)C1c1nc(C(=O)NCCCCC2CCCCC2)co1` (configuration not stated), the IC50 stood at 0.008 µM.

`O=C(O)CCc1ccccc1/C=C1/C2CCC(O2)C1c1nc(C(=O)NCCCCC2CCCCC2)co1` (configuration not stated): the IC50 stood at 12.7 µM.
